Holding throughout (type): functional, cell-based
Holding throughout (settings): Oocyte

In test [1] the target is Monocarboxylate transporter 8 (Rattus norvegicus) (UniProt Q8K1P8). As to the kind of experiment: TP_TRANSPORTER: uptake in Xenopus laevis oocytes.
Test [2] shares this target. Description: TP_TRANSPORTER: inhibition of thyroxine uptake (thyroxine:10nM, Tyrosine: 100 uM) in Xenopus laevis oocytes. More on the design: scale not given: the % may be the effect or the level left.
For test [3] the target is unchanged. As to the kind of experiment: TP_TRANSPORTER: inhibition of 3,3',5-triiodothyronine uptake (3,3',5-triiodothyronine:10nM, Tyrosine: 100 uM) in Xenopus laevis oocytes. More on the design: scale not given: the % may be the effect or the level left.
Test [4] has the same target. Description: TP_TRANSPORTER: inhibition of 3,3',5-triiodothyronine uptake (3,3',5-triiodothyronine:10nM, N-bromoacetyl-3,3',5-triiodothyronine: 10 uM) in Xenopus laevis oocytes. More on the design: scale not given: the % may be the effect or the level left.
Test [5] shares this target. Description: TP_TRANSPORTER: inhibition of thyroxine uptake (thyroxine:10nM, N-bromoacetyl-3,3',5-triiodothyronine: 10 uM) in Xenopus laevis oocytes. More on the design: scale not given: the % may be the effect or the level left.
Test [6] shares this target. Description: TP_TRANSPORTER: inhibition of thyroxine uptake (thyroxine:10nM, D-thyroxine: 10 uM) in Xenopus laevis oocytes. More on the design: scale not given: the % may be the effect or the level left.
Test [7] shares this target. As to the kind of experiment: TP_TRANSPORTER: inhibition of 3,3',5-triiodothyronine uptake (3,3',5-triiodothyronine:10nM, D-thyroxine: 10 uM) in Xenopus laevis oocytes. More on the design: scale not given: the % may be the effect or the level left.
Test [8] has the same target. As to the kind of experiment: TP_TRANSPORTER: inhibition of thyroxine uptake (thyroxine:10nM, bromosul-fophthalein: 100 uM) in Xenopus laevis oocytes. More on the design: scale not given: the % may be the effect or the level left.
For test [9] the target is unchanged. As to the kind of experiment: TP_TRANSPORTER: inhibition of 3,3',5-triiodothyronine uptake (3,3',5-triiodothyronine:10nM, bromosul-fophthalein: 100 uM) in Xenopus laevis oocytes. More on the design: scale not given: the % may be the effect or the level left.
Test [10] has the same target. As to the kind of experiment: TP_TRANSPORTER: inhibition of 3,3',5-triiodothyronine uptake (3,3',5-triiodothyronine:10nM, D-3,3',5-triiodothyronine: 10 uM) in Xenopus laevis oocytes. More on the design: scale not given: the % may be the effect or the level left.
The target is the same in test [11]. As to the kind of experiment: TP_TRANSPORTER: inhibition of thyroxine uptake (thyroxine:10nM, D-3,3',5-triiodothyronine: 10 uM) in Xenopus laevis oocytes. More on the design: scale not given: the % may be the effect or the level left.
For test [12] the target is unchanged. As to the kind of experiment: TP_TRANSPORTER: inhibition of 3,3',5-triiodothyronine uptake (3,3',5-triiodothyronine:10nM, L-thyroxine: 10 uM) in Xenopus laevis oocytes. More on the design: scale not given: the % may be the effect or the level left.
Test [13] shares this target. Description: TP_TRANSPORTER: inhibition of thyroxine uptake (thyroxine:10nM, L-thyroxine: 10 uM) in Xenopus laevis oocytes. More on the design: scale not given: the % may be the effect or the level left.
For test [14] the target is unchanged. As to the kind of experiment: TP_TRANSPORTER: inhibition of 3,3',5-triiodothyronine uptake (3,3',5-triiodothyronine:10nM, Tryptophan: 100 uM) in Xenopus laevis oocytes. More on the design: scale not given: the % may be the effect or the level left.
Test [15] shares this target. As to the kind of experiment: TP_TRANSPORTER: inhibition of thyroxine uptake (thyroxine:10nM, Tryptophan: 100 uM) in Xenopus laevis oocytes. More on the design: scale not given: the % may be the effect or the level left.

Monocarboxylate transporter 8 (Rattus norvegicus), sequence (Q8K1P8 whole entry): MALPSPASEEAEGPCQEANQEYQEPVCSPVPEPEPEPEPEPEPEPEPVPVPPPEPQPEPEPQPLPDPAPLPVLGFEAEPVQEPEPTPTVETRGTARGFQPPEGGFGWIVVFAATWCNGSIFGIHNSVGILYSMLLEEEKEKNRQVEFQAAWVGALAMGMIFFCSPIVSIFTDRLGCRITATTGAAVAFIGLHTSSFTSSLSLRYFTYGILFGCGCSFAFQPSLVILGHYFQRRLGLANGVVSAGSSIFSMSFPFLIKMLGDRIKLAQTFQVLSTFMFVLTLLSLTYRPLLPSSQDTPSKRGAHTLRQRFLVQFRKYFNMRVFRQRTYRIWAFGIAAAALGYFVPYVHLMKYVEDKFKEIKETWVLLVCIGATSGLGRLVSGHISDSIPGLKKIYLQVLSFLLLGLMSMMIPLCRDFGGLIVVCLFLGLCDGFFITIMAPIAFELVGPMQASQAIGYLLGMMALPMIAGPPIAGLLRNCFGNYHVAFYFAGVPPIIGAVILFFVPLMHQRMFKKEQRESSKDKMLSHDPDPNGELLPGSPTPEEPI

As to `N[C@@H](Cc1ccc(O)cc1)C(=O)O`, the Activity entry in [1] is “is not a substrate [-]”; in test [2] it was 37%; in test [3] it was 0%. On to `O=C(CBr)N[C@@H](Cc1cc(I)c(Oc2ccc(O)c(I)c2)c(I)c1)C(=O)O`, for which the figures for the Activity in test [4] and in test [5] were 67% and 90%, respectively. Take `CC(C)C[C@H](N)C(=O)O`: in test [1], the Activity entry was “is not a substrate [-]”. With `N[C@H](Cc1cc(I)c(Oc2cc(I)c(O)c(I)c2)c(I)c1)C(=O)O`, the Activity is 76% in test [6] and 21% in test [7]. As to `O=C1OC(c2ccc(O)c(S(=O)(=O)O)c2)(c2ccc(O)c(S(=O)(=O)O)c2)c2c(Br)c(Br)c(Br)c(Br)c21`, the Activity was 94% in [8] and 81% in test [9]. Regarding `N[C@@H](Cc1cc(I)c(Oc2cc(I)c(OS(=O)(=O)O)c(I)c2)c(I)c1)C(=O)O`, the Activity result in test [1] was “is not a substrate [-]”. Turning to `N[C@@H](Cc1ccc(Oc2cc(I)c(O)c(I)c2)c(I)c1)C(=O)O`, the Activity in [10] is 24%; in [11] it was 72%. On to `O=C(O)[C@@H](Cc1cc(I)c(Oc2cc(I)c(O)c(I)c2)c(I)c1)NS(=O)(=O)O`, for which, in [1], the Activity entry was “is not a substrate [-]”. As for `N[C@@H](Cc1cc(I)c(Oc2cc(I)c(O)c(I)c2)c(I)c1)C(=O)O`, the results for the Activity in [12] and in [13] were 26% and 69%, respectively.

Consider `NC(Cc1ccc(Oc2ccc(O)c(I)c2)c(I)c1)C(=O)O` (stereo unspecified), for which the Activity entry in test [1] is “substrate [+]”. Regarding `N[C@@H](Cc1c[nH]c2ccccc12)C(=O)O`, the Activity in test [14] is 0%; in test [15], 22%; in test [1], “is not a substrate [-]”. Regarding `N[C@@H](Cc1ccccc1)C(=O)O`, in [1], the Activity result was “is not a substrate [-]”.

The values above are taken from ChEMBL document CHEMBL2074163, “Identification of monocarboxylate transporter 8 as a specific thyroid hormone transporter” (J Biol Chem, 2003).
